Patent US20090104598A1, “Dopamine D2 receptor gene variants” (CENTRE FOR ADDICTION AND MENTAL HEALTH, priority 2006, published 2009)

Tests used:
[1] = clinical; conditions: human, in vivo
Description: Thus, % Score Change=(6 Month Score−Baseline Score)/(Baseline Score).

[2] = treatment refractory patients; Miller 1996; cited from earlier work

For `CN1CCN(C2=Nc3cc(Cl)ccc3Nc3ccccc32)CC1` [clozapine], which concentration at 6 month [1] is on record?
The concentration at 6 month was 399 ng/mL.

And the “blood clozapine threshold level that increases likelihood of clinical response” value [2]?
The value was 350 ng/mL.
